# Article PMC13534789, “Molecular Glue Degraders Enhance CAPRIN1‐Dependent Lysosomal Degradation of APP and Reduce Amyloid β in Alzheimer's Disease” (Advanced Science, 2026)
# Experiments:
# [1] = system: rhCAPRIN1 and rhAPP; test: ThermoFluor assay with recombinant proteins; format: binding, human; conditions: proteins 5 µM
# Description: For the Thermofluor assay, Huynh's protocol was used with minor modifications. In brief, all proteins were used at a final concentration of 5 µM for this assay, and GloMelt Thermal Shift Protein Stability Kit (Biotium) was used at a final concentration of 0.5X. All experiments were carried out with QuantStudio 6 Flex (Applied Biosystems). SYBR was used as a reporter, and ROX was used as a passive reference according to the manufacturer's directions. Melting curve data were exported, followed by analysis with Boltzmann's sigmoidal curve in GraphPad Prism.
# [2] = system: iPSC‐Ns; test: Cell viability / cytotoxicity of iPSC-derived neurons; format: cell-based, human; conditions: AG27606-Ns, 10 µM, 72 h
# Description: Cytotoxicity test was conducted using Neutral Red Uptake assay. In brief, iPSC‐Ns seeded in 96 well plates (1 × 10^5 cells/well) were treated dose‐dependently for 5 days. Cells were washed with PBS containing CaCl2 and MgCl2 followed by the addition of Neutral red solution (40 µg/mL in PBS, Sigma–Aldrich) and incubation at 37°C for 3 h. Cells were then washed with PBS containing CaCl2 and MgCl2 two times and de‐stained using with Neutral red de‐staining solution on a plate shaker for 30 min, followed by reading at 540 nm with a Microplate reader. Cell viability was determined using the CellTiter‐Glo Luminescent Cell Viability Assay (Promega) following the manufacturer's instructions. […]
# [3] = Brain/plasma ratio in mice; format: in vivo, male C57BL/6 mice; conditions: male, C57BL/6, brain, 10 mg/kg; mouse, PO, 10 mpk; read-out: B/P-Kp (brain-to-plasma partition coefficient)
# Description: Brain/Plasma Ratio test was processed by Sai Life Sciences Pvt. Ltd. Briefly, twelve male C57BL/6 mice were administered orally with solution formulation of 0152 at 10 mg/kg dose. Blood samples (approximately 60 µL) were collected under light isoflurane anesthesia from a set of three mice at 0.25, 0.5, 1, and 2 h. The blood samples were collected at each time point in labelled micro centrifuge tube containing K2EDTA as anticoagulant. Plasma was harvested by centrifugation of blood and stored at ‐70±10°C until analysis. Immediately after collecting blood, animals were anesthetized, perfused using 10 mL phosphate buffer saline, and brain samples were collected from each mouse at respective time points. Brain samples were homogenized using ice‐cold phosphate buffer saline (pH 7.4), and homogenates were stored below ‐70±10°C until analysis. Total homogenate volume was three times the brain weight. The plasma and brain concentration‐time data of 0152 were used for calculation. Plasma and brain samples were quantified by fit‐for‐purpose LC‐MS/MS method.
# [4] = molecular target: T1, 3R‐APP695‐HiBiT (Homo sapiens, UniProt P05067, K724R/K725R/K726R); test: HiBiT luminescence and Aβ42 ELISA in 3R-APP695-HiBiT HEK cells; format: cell-based; conditions: KKK motif K649–K651 replaced by arginines, 72 h
# T1 construct: expressed in transfected cells
# Text: To validate this interaction, we co‐expressed the C‐terminal domain of APP (HiBiT‐tagged C99) and the N‐terminus of FLAG‐tagged CAPRIN1 (residues 1–250) in HEK cells. Flag IP followed by western blotting confirmed the interaction between CAPRIN1 and APP (Figure 4H). To further delineate the interaction interface, we focused on a lysine‐rich (KKK) motif (K649–K651) within APP as a potential CAPRIN1‐interacting region, given its location within the cytosolic domain of C99 and its enrichment in basic residues that may mediate protein–protein interactions. To assess the functional relevance of this interaction in compound activity, we generated an APP695‐3R mutant, replacing the KKK motif (K649‐K651) with arginines by site‐directed mutagenesis. […] To further assess the role of this motif in APP‐CAPRIN1 interaction, we performed co‐immunoprecipitation experiments comparing WT‐ and 3R‐APP695‐HiBiT.
# HEK293 cells were purchased from the American Type Culture Collection (ATCC). Lentiviral plasmids (pLV‐Hygro‐CMV‐hAPP, pLV‐Hygro‐CMV‐hAPP‐Hibit, and pLV‐Hygro‐CMV‐hAPP ‐3K to 3R‐Hibit) for APP695WT HEK293 and APP695‐Hibit HEK293 were generated in the third‐generation plasmid. […] Once expanded, clones were analyzed by ELISA for amyloid beta 42 (Aβ42), western blot for APP expression, and Hibit‐lytic assay (Promega). […]
smiles,measurement,setting,value
N#Cc1cccc(NC(=O)Nc2nc3ccc(C(=O)N4CCOCC4)cc3s2)c1 [compound 0043],Thermal shift of recombinant CAPRIN1 and APP,[1],thermal shifts for both proteins
COc1cccc(NC(=O)Nc2nc3ccc(C(=O)N4CCOCC4)cc3s2)c1 [compound 0152],Neuronal toxicity (CellTiter-Glo),[2],without neuronal toxicity
same,Kp,[3],0.03
same,"Response of 3R-APP695-HiBiT cells (HiBiT luminescence, Aβ42 ELISA)",[4],no response
